The target in experiment [1] is T1, Alpha-2A adrenergic receptor (Homo sapiens, UniProt P08913).
T1 sequence (P08913 whole entry): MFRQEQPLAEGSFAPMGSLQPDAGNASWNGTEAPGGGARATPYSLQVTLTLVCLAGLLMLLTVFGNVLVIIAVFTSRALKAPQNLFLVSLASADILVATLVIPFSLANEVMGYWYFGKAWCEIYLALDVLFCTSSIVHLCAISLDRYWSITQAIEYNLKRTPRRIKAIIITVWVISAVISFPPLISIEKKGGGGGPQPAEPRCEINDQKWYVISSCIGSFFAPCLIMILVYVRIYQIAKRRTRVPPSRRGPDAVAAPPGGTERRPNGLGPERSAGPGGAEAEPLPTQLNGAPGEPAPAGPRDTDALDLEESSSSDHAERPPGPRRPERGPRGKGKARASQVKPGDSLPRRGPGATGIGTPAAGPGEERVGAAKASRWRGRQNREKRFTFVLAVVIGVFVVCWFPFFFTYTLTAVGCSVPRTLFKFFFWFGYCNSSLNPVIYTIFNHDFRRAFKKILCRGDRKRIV
Format: functional, cell-based.

Experiment [2] addresses Neuronal acetylcholine receptor subunit alpha-4 (Homo sapiens, UniProt P43681).
Experiment [3] addresses T2, Adenosine receptor A3 (Homo sapiens, UniProt P0DMS8).
T2 sequence (P0DMS8 whole entry): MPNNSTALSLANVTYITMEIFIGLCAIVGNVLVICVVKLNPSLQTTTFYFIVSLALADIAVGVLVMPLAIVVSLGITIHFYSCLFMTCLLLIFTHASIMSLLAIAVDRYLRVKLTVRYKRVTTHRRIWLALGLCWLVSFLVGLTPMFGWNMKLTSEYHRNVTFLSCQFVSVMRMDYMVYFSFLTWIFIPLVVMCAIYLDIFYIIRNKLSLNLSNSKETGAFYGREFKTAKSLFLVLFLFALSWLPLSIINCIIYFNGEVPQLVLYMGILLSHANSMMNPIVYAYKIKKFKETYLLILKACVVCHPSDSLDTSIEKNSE

For experiment [4], the target named is Beta-1 adrenergic receptor (Homo sapiens, UniProt P08588). Format: functional.
Beta-1 adrenergic receptor, sequence (P08588 whole entry): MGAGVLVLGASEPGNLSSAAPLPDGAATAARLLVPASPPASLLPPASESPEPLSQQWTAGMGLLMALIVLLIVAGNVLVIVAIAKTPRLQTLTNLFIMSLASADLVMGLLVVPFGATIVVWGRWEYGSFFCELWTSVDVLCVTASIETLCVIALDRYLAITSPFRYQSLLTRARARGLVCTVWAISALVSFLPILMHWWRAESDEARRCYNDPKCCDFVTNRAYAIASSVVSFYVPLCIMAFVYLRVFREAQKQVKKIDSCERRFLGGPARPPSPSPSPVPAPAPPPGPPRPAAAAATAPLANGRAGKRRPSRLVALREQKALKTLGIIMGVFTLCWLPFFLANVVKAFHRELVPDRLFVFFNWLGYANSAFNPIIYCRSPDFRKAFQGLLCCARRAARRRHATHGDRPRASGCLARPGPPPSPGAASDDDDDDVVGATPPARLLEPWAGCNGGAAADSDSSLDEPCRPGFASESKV
Experiment [5] deals with T3, Gamma-aminobutyric acid receptor subunit alpha-1 (Rattus norvegicus, UniProt P62813).
T3 sequence (P62813 whole entry): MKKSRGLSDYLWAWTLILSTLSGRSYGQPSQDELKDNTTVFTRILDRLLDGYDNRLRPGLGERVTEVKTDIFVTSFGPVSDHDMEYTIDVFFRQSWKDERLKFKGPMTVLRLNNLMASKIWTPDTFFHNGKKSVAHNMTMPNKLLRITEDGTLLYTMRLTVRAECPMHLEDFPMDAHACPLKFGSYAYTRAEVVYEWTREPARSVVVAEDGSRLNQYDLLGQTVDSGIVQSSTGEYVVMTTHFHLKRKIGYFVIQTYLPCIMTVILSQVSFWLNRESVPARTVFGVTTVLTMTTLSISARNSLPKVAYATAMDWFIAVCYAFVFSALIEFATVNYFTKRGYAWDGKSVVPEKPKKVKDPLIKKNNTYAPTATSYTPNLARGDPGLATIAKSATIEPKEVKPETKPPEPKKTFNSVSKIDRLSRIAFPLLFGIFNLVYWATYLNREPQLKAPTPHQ
Experiment [6] addresses T3, Gamma-aminobutyric acid receptor subunit alpha-1. Format: functional.
In experiment [7] the target is Growth hormone secretagogue receptor type 1 (Homo sapiens, UniProt Q92847).
Growth hormone secretagogue receptor type 1, sequence (Q92847 whole entry): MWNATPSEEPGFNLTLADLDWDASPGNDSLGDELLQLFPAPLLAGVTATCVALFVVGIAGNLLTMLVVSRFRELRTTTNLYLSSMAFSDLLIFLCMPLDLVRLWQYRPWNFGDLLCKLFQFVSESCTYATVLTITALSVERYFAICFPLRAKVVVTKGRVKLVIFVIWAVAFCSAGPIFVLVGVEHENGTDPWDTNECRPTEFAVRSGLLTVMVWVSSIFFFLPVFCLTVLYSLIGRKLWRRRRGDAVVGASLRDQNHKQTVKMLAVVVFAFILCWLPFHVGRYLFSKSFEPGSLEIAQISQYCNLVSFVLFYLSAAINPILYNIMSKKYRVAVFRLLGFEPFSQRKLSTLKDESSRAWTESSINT
In experiment [8] the target is T4, Amine oxidase [flavin-containing] A (Homo sapiens, UniProt P21397).
T4 sequence (P21397 whole entry): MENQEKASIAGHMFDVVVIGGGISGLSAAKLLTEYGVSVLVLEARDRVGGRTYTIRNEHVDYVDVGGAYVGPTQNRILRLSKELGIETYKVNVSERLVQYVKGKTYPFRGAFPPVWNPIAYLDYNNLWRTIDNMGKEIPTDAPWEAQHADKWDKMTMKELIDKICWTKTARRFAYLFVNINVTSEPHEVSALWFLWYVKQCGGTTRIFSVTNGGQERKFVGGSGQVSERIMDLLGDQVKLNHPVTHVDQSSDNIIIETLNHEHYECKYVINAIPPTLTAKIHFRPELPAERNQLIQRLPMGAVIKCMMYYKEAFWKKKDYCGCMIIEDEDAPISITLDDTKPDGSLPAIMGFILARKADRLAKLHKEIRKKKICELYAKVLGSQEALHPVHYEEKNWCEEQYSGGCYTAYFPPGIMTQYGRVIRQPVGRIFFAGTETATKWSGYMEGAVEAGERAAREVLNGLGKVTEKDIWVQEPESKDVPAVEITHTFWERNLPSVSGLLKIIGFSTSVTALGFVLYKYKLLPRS
Format: functional.

Here are results for 20 compounds from ChEMBL document CHEMBL5291721, “A preclinical secondary pharmacology resource illuminates target-adverse drug reaction associations of marketed drugs” (Nat Commun, 2023).

By AC50 is commonly meant the midpoint of the concentration-response curve, whichever way the signal moves. A low value points to activity at low concentration.
Also: assay procedure not described here.

Neuronal acetylcholine receptor subunit alpha-4, sequence (P43681 whole entry): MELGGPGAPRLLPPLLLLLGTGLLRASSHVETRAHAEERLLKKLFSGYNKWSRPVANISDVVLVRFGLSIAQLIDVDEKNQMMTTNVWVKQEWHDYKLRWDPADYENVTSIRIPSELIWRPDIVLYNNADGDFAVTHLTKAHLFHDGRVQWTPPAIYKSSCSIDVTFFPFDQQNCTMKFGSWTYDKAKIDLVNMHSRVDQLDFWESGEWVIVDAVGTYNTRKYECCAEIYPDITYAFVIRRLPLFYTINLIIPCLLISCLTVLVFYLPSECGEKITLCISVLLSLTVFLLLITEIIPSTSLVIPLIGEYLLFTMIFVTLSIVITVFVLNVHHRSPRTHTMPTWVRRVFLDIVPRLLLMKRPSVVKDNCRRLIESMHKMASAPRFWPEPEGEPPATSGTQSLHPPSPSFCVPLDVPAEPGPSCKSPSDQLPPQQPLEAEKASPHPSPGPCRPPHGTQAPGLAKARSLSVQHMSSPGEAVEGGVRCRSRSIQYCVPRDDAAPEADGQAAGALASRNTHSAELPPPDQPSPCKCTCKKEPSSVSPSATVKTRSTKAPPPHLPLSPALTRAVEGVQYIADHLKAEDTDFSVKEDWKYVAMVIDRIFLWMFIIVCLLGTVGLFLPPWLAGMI

On to `C[C@]12CC[C@H](O)CC1=CC[C@@H]1[C@@H]2CC[C@]2(C)C(c3cccnc3)=CC[C@@H]12` [ABIRATERONE], for which the AC50 is more than 10 µM in experiment [1]; more than 10 µM in experiment [2]; more than 30 µM in experiment [3]; more than 30 µM in experiment [4]; more than 10 µM in experiment [5]; more than 10 µM in experiment [6]. In addition, the AC50 in experiment [7] is more than 30 µM; in experiment [8], more than 10 µM.
As for `CN(C)C(=O)Oc1cc(OC(=O)N(C)C)cc(C(O)CNC(C)(C)C)c1` (stereo not given) [BAMBUTEROL], the AC50 in experiment [2], in experiment [3], in experiment [4] and in experiment [7] was more than 30 µM throughout.
Take `C[C@H]1C[C@H]2[C@@H]3CCC4=CC(=O)C=C[C@]4(C)[C@@]3(Cl)[C@@H](O)C[C@]2(C)[C@@]1(O)C(=O)CO` [BECLOMETHASONE]: the AC50 in experiment [2] is more than 10 µM; in experiment [3] it was more than 30 µM; in experiment [4] it was more than 10 µM; in experiment [5], more than 10 µM; in experiment [6] it was more than 10 µM; in experiment [7], more than 30 µM. In addition, the AC50 in experiment [8] was more than 10 µM.
On to `NS(=O)(=O)c1cc(C2(O)NC(=O)c3ccccc32)ccc1Cl` (stereo not given) [CHLORTHALIDONE], for which the AC50 in experiment [1], in experiment [2], in experiment [3], in experiment [4], in experiment [5] and in experiment [6] was more than 10 µM in each case. Also, the AC50 in experiment [7] and in experiment [8] was more than 10 µM throughout.
As for `C[C@@H]1CCC[C@H](C)N1NC(=O)c1ccc(Cl)c(S(N)(=O)=O)c1` [CLOPAMIDE], the AC50 in experiment [1], in experiment [2], in experiment [3], in experiment [4], in experiment [5] and in experiment [6] was more than 30 µM each time. Also, the AC50 in experiment [7] and in experiment [8] was more than 30 µM throughout.
As to `COc1ccc2c(c1)[C@]13CCCC[C@@H]1[C@H](C2)N(C)CC3` [DEXTROMETHORPHAN], the AC50 in experiment [1] is more than 10 µM; in experiment [2], more than 10 µM; in experiment [3], more than 30 µM; in experiment [4], more than 10 µM; in experiment [5] it was more than 10 µM; in experiment [6], more than 10 µM. The AC50 in experiment [7] is more than 30 µM; in experiment [8], more than 10 µM.
In the case of `O=c1oc2ccccc2c(O)c1Cc1c(O)c2ccccc2oc1=O` [DICUMAROL], the AC50 in experiment [1], in experiment [2], in experiment [3], in experiment [4], in experiment [5] and in experiment [6] was more than 10 µM each time. Moreover, the AC50 in experiment [7] and in experiment [8] was more than 10 µM each time.
As to `O=C(O)CSCC(=O)NC1CCSC1=O` (stereo not given) [ERDOSTEINE], the AC50 in experiment [1], in experiment [2], in experiment [3], in experiment [4], in experiment [5] and in experiment [6] was more than 30 µM each time. The AC50 in experiment [7] and in experiment [8] was more than 30 µM in each case.
For the compound `COc1cccc(N(C)C(=S)Oc2ccc3c(c2)CCCC3)n1` [LIRANAFTATE], the AC50 in experiment [1], in experiment [2], in experiment [3], in experiment [4], in experiment [5] and in experiment [6] was more than 30 µM each time. In addition, the AC50 in experiment [7] was more than 30 µM; in experiment [8], 18 µM.
As for `C#C[C@]1(O)CC[C@H]2[C@@H]3CCc4cc(OC)ccc4[C@H]3CC[C@@]21C` [MESTRANOL], the AC50 in experiment [1] is more than 10 µM; in experiment [2], more than 10 µM; in experiment [3] it was more than 30 µM; in experiment [4], more than 10 µM; in experiment [5], more than 10 µM; in experiment [6], more than 10 µM. Moreover, the figures for the AC50 in experiment [7] and in experiment [8] were more than 10 µM and more than 30 µM, respectively.
Take `N=C(N)c1ccc2cc(OC(=O)c3ccc(N=C(N)N)cc3)ccc2c1` [NAFAMOSTAT]: the AC50 in experiment [1] is more than 30 µM; in experiment [2], more than 30 µM; in experiment [3], 21 µM; in experiment [4], more than 30 µM; in experiment [5], 3.5 µM; in experiment [6], more than 30 µM. In addition, the AC50 was found to be 21 µM in experiment [7] and 14 µM in experiment [8].
Turning to `CNC(=O)Oc1ccc2c(c1)[C@]1(C)CCN(C)[C@@H]1N2C` [PHYSOSTIGMINE], the AC50 in experiment [1], in experiment [2], in experiment [3], in experiment [4], in experiment [5] and in experiment [6] was more than 30 µM throughout. Also, the AC50 in experiment [7] and in experiment [8] was more than 30 µM in each case.
For the compound `O=C(O)c1cc(O)c2c3nc4ccccc4oc-3cc(=O)c2n1` [PIRENOXINE], the AC50 in experiment [1], in experiment [2], in experiment [3], in experiment [4], in experiment [5] and in experiment [6] was more than 30 µM throughout. For the same compound, the values for the AC50 in experiment [7] and in experiment [8] were more than 30 µM and 2.2 µM, respectively.
Turning to `NS(=O)(=O)c1cc(C(=O)O)cc(N2CCCC2)c1Oc1ccccc1` [PIRETANIDE], the AC50 in experiment [1], in experiment [2], in experiment [3], in experiment [4], in experiment [5] and in experiment [6] was more than 30 µM each time. Moreover, the AC50 in experiment [7] and in experiment [8] was more than 30 µM each time.
`CNCCCC1c2ccccc2C=Cc2ccccc21` [PROTRIPTYLINE]: the AC50 in experiment [1], in experiment [2], in experiment [3], in experiment [5], in experiment [6] and in experiment [7] was more than 10 µM each time. Also, the AC50 in experiment [8] is more than 10 µM.
In the case of `CC(C)=CCOc1ccc(/C=C/C(=O)c2ccc(OCC=C(C)C)cc2OCC(=O)O)cc1` [SOFALCONE], the AC50 in experiment [1] was more than 30 µM; in experiment [2] it was more than 30 µM; in experiment [3], 5.5 µM; in experiment [4], 21 µM; in experiment [5], more than 30 µM; in experiment [6] it was more than 30 µM. The half-maximal activity concentration (AC50) in experiment [7] and in experiment [8] was more than 30 µM each time.
For the compound `O=C(CCCN1CCC2(CC1)C(=O)NCN2c1ccccc1)c1ccc(F)cc1` [SPIPERONE], the AC50 in experiment [1] is 4.5 µM; in experiment [2], more than 30 µM; in experiment [3], more than 30 µM; in experiment [4], 2.8 µM; in experiment [5], more than 30 µM; in experiment [6] it was more than 30 µM. Also, the figures for the AC50 in experiment [7] and in experiment [8] were more than 10 µM and more than 30 µM, respectively.
`CCSc1ccc2c(c1)N(CCCN1CCN(C)CC1)c1ccccc1S2` [THIETHYLPERAZINE]: the AC50 in experiment [2] is more than 3 µM; in experiment [3] it was more than 10 µM; in experiment [4] it was more than 30 µM; in experiment [8], more than 30 µM.
In the case of `CN(C)c1cc(NC(=O)CNC(C)(C)C)c(O)c2c1C[C@H]1C[C@H]3[C@H](N(C)C)C(O)=C(C(N)=O)C(=O)[C@@]3(O)C(O)=C1C2=O` [TIGECYCLINE], the half-maximal activity concentration (AC50) was more than 30 µM in experiment [1]; more than 30 µM in experiment [2]; 26.9 µM in experiment [3]; more than 30 µM in experiment [4]; more than 30 µM in experiment [5]; more than 30 µM in experiment [6]. Moreover, the AC50 in experiment [7] and in experiment [8] was more than 30 µM each time.
For `OCCN1CCN(CC/C=C2/c3ccccc3Sc3ccc(Cl)cc32)CC1` [ZUCLOPENTHIXOL], the AC50 in experiment [1], in experiment [2], in experiment [3], in experiment [4], in experiment [5] and in experiment [6] was more than 10 µM each time. Also, the AC50 in experiment [7] and in experiment [8] was more than 10 µM throughout.
